Laboratory results as given in PubChem BioAssay (NCI).
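Assay format: 96-well plates, 48-hour exposure. Here, GI50 denotes the concentration required for 50% inhibition of growth. The concentration for full growth arrest is given as TGI.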

Columns and labels:
Experiment in all cases: NCI tumour cell line growth inhibition, 48 h
DLD-1 colon = test system: DLD-1 colon
DMS 114 small cell lung = test system: DMS 114 small cell lung
HCC-2998 colon = test system: HCC-2998 colon
HOP-18 NSCLC = test system: HOP-18 NSCLC
KM12 colon = test system: KM12 colon
KM20L2 colon = test system: KM20L2 colon
LXFL 529 NSCLC = test system: LXFL 529 NSCLC
RXF-631 renal = test system: RXF-631 renal
SNB-19 CNS = test system: SNB-19 CNS
A549 NSCLC = test system: A549 NSCLC
K-562 leukemia = test system: K-562 leukemia
RPMI-8226 leukemia = test system: RPMI-8226 leukemia
SR leukemia = test system: SR leukemia
TK-10 renal = test system: TK-10 renal

Cc1ccc(NC(=O)CC/C(CC(=O)C(C)(C)C)=N/NC(=O)c2cc3ccccc3cc2O)cc1C
TGI (DLD-1 colon): > 100 µM
TGI (DMS 114 small cell lung): > 100 µM
TGI (HCC-2998 colon): 55 µM
TGI (HOP-18 NSCLC): > 100 µM
TGI (KM12 colon): > 100 µM
TGI (KM20L2 colon): > 100 µM
TGI (LXFL 529 NSCLC): > 100 µM
TGI (RXF-631 renal): > 100 µM
TGI (SNB-19 CNS): > 100 µM

CCC12CCC[C@@]13C=C[C@H](O3)C(C)(C)C2=O (some centres undefined)
TGI (A549 NSCLC): > 100 µM
TGI (DLD-1 colon): > 100 µM
TGI (DMS 114 small cell lung): > 100 µM
TGI (HCC-2998 colon): > 100 µM
TGI (HOP-18 NSCLC): > 100 µM
TGI (K-562 leukemia): > 100 µM
TGI (KM20L2 colon): > 100 µM
TGI (LXFL 529 NSCLC): > 100 µM
TGI (RPMI-8226 leukemia): > 100 µM
TGI (RXF-631 renal): > 100 µM
TGI (SNB-19 CNS): > 100 µM
TGI (SR leukemia): > 100 µM
TGI (TK-10 renal): > 100 µM

O=C1c2ccccc2-c2c1c1ccccc1c(=O)n2CCCNCCNCCCn1c2c(c3ccccc3c1=O)C(=O)c1ccccc1-2
GI50 (A549 NSCLC): 0.0534 µM
TGI (A549 NSCLC): 1.63 µM
GI50 (K-562 leukemia): < 0.0335 µM
TGI (K-562 leukemia): > 100 µM
GI50 (KM12 colon): < 0.04 µM
TGI (KM12 colon): 0.415 µM
GI50 (RPMI-8226 leukemia): < 0.01 µM
TGI (RPMI-8226 leukemia): 0.221 µM
GI50 (SR leukemia): 0.0509 µM
TGI (SR leukemia): > 100 µM
GI50 (TK-10 renal): 0.279 µM
TGI (TK-10 renal): 2.08 µM
